This is an account of results in patent publication US10059689B2, “Substituted heteroaryl compounds and methods of use” (Sunshine Lake Pharma Co., Ltd., priority 2014, dated 2018).

The nature of data set [1]: Compound stability in human liver microsomes. It counts as in vitro ADME. The following applies: for half-life: pH 7.4, 37° C., NADPH, read-out: Human T1/2; for CLint scaled: pH 7.4, in vivo CLint extrapolated. The protocol:
(§1) Human or rat liver microsomes incubations were conducted in duplicate in polypropylene tubes. The typical incubation mixtures consisted of human or rat liver microsomes (0.5 mg protein/mL), compounds of interest (5 μM) and NADPH (1.0 mM) in a total volume of 200 μL potassium phosphate buffer (PBS, 100 mM, pH 7.4). Compounds were dissolved in DMSO and diluted with PBS such that the final concentration of DMSO was 0.05%. The enzymatic reactions were commenced with the addition of protein after a 3-min preincubation and incubated in a water bath open to the air at 37° C. Reactions were terminated at various time points (0, 5, 10, 15, 30, 60 min) by adding equal volume of ice-cold acetonitrile. The samples were stored at −80° C. until LC/MS/MS assays.
(§2) The concentrations of compounds in the incubation mixtures of human or rat liver microsomes were determined by a LC/MS/MS method. The ranges of the linearity in the concentration range were determined for each tested compounds.
(§3) A parallel incubation was performed using denatured microsomes as the negative control, and reactions were terminated at various time points (0, 15, 60 min) after incubation at 37° C.
(§4) Verapamil (1 μM) was selected as the positive control, and reactions were terminated at various time points (0, 5, 10, 15, 30, 60 min) after incubation at 37° C. Both positive and negative control samples were included in each assay to ensure the integrity of the microsomal incubation system.
(§5) In addition, the stability date of compound in human and rat liver microsomes was also obtained through the following method. Human or rat liver microsomes incubations were conducted in duplicate in polypropylene tubes. The typical incubation mixtures consisted of human or rat liver microsomes (0.5 mg protein/mL), compounds of interest (1.5 μM) and EDTA (1.0 mM) in a total volume of 30 μL potassium phosphate buffer (PBS, 100 mM, pH 7.4). Compounds were dissolved in DMSO and diluted with PBS such that the final concentration of DMSO was 0.2%. The enzymatic reactions were commenced with the addition of 15 μL NADPH (final concentration: 2 mM) after a 10-min preincubation and incubated in a water bath open to the air at 37° C. Reactions were terminated at various time points (0, 15, 30, 60 min) by adding 135 μL acetonitrile (contain IS). The samples were centrifuged at 4000 rpm for 10 min to remove protein, the supernatant was stored at −80° C. until LC/MS/MS assays. Ketanserin (1 μM) was selected as the positive control, and reactions were terminated at various time points (0, 15, 30, 60 min) after incubation at 37° C. Both positive and negative control samples were included in each assay to ensure the integrity of the microsomal incubation system.
(§6) The concentrations of compounds in human or rat liver microsome incubations were plotted as a percentage of the relevant zero time point control for each reaction. The in vivo CLint were extrapolated (ref.: Naritomi, Y.; Terashita, S.; Kimura, S.; Suzuki, A.; Kagayama, A.; and Sugiyama, Y.; Prediction of human hepatic clearance from in vivo animal experiments and in vitro metabolic studies with liver microsomes from animals and humans. Drug Metab. Dispos., 2001, 29: 1316-1324).

A short description of data set [2]: Compound stability in rat liver microsomes. It counts as in vitro ADME. The note with it: for half-life: pH 7.4, 37° C., NADPH, read-out: Rat T1/2; for CLint scaled: pH 7.4, in vivo CLint extrapolated. Here is the method: as §1, §2, §3, §4, §5, §6
Data set [3] can be described thus: Pharmacokinetics after intravenous and oral administration in rats. The following applies: for clearance (CL) / AUC(0-t) / half-life / Vd: iv dosing, 1 mg/kg; for F: oral bioavailability; for AUC(0-t) / half-life / Vd: rat, plasma; for Vd: read-out: Vss. The data set is classed as in vivo. Here is the method: The LC/MS/MS system used in the analysis consists of an Agilent 1200 Series vacuum degasser, binary pump, well-plate autosampler, thermostatted column compartment, the Agilent G6430 Triple Quadrupole Mass Spectrometer with an electrosprayionization (ESI) source. Quantitative analysis was carried out using MRM mode. The parameters for MRM transitions are in the Table A.
An Agilent XDB-C18, 2.1×30 mm, 3.5 μM column was used for the analysis. 5 μL of the samples were injected. Analysis condition: The mobile phase was 0.1% formic acid in water (A) and 0.1% formic acid in methanol (B). The flow rate was 0.4 mL/min. And the gradient of Mobile phase was in the Table B.
Alternatively, an Agilent 6330 series LC/MS/MS spectrometer equipped with G1312A binary pumps, a G1367A autosampler and a G1314C UV detector were used in the analysis. An ESI source was used on the LC/MS/MS spectrometer. The analysis was done in positive ion mode as appropriate and the MRM transition for each analyte was optimized using standard solution. A Capcell MP-C18 100×4.6 mm I.D., […] column (Phenomenex, Torrance, Calif., USA) was used during the analysis. The mobile phase was 5 mM ammonia acetate, 0.1% MeOH in water (A): 5 mM ammonia acetate, 0.1% MeOH in acetonitrile (B) (70:30, v/v). The flow rate was 0.6 mL/min. Column was maintained at ambient temperature. 20 μL of the samples were injected.
The compounds disclosed herein are assessed in pharmacokinetic studies in mice, rats, dogs or monkeys. The compounds are administered as a water solution, 2% HPMC+1% TWEEN®80 in water solution, 5% DMSO+5% solutol in saline, 4% MC suspension or capsule. For the intravenous administration, the animals are generally given at 1 or 2 mg/kg dose. For the oral (p.o.) dosing, mice and rats are generally given 5 or 10 mg/kg dose, and dogs and monkeys are generally given 10 mg/kg dose. The blood samples (0.3 mL) are drawn at 0.25, 0.5, 1.0, 2.0, 3.0, 4.0, 6.0, 8.0, 12 and 24 h time points or 0.083, 0.25, 0.5, 1.0, 2.0, 4.0, 6.0, 8.0 and 24 h time points and centrifuged at 3,000 or 4000 rpm for 2 to 10 min. The plasma solutions are collected, and stored at −20° C. or −70° C. until analyzed by LC/MS/MS as described above.

Usually CLint scaled stands for the capacity of the preparation to metabolise the compound, expressed as a volume cleared per time. Broadly, the AUC(0-t) is exposure summed from dosing to a finite time, without extrapolation to infinity. The low end stands for less exposure, the high end for more exposure. For `CCC1CN(c2ccc(C#N)cn2)CCC1Nc1nc(Nc2ccc3c(C)n(C)nc3c2)ncc1Cl` (stereo not shown) [Ex. 23], in data set [1], the half-life is 15.5 min and the CLint scaled was 112 mL/min/kg. Further, in data set [2], the half-life was found to be 20.4 min and the CLint scaled is 121 mL/min/kg. Moreover, in data set [3], the “clearance (CL)” value is 6.83 mL/min/kg, the F is 31.0%, the AUC(0-t) was 2430 ng·h/mL and the half-life is 81 min. For the same compound, the Vd in data set [3] worked out at 0.84 L/kg.
Consider `CCC1CN(c2ccc(C#N)nn2)CCC1Nc1nc(Nc2ccc3c(C)n(C)nc3c2)ncc1Cl` (stereo not shown) [Ex. 17, 6-(4-((5-chloro-2-((2,3-dimethyl-2H-indazol-6-yl)amino)pyrimidin-4-yl)amino)-3-ethylpiperidin-1-yl)pyridazine-3-carbonitrile], for which, in data set [1], the half-life is 11.1 min and the CLint scaled was 156 mL/min/kg. Also, in data set [2], the half-life was determined as 3.81 min and the CLint scaled is 652 mL/min/kg. Besides, in data set [3], the “clearance (CL)” value stood at 18.3 mL/min/kg, the F is on record as 36.0%, the AUC(0-t) was found to be 911 ng·h/mL and the half-life is 40.2 min. The Vd in data set [3] is 0.45 L/kg.
In the case of `CCC1CN(c2ccc(C#N)nn2)CCC1Nc1ccnc(Nc2cc(C)n(C)n2)n1` (stereo not shown) [Ex. 22, 6-(4-((2-((1,5-dimethyl-1H-pyrazol-3-yl)amino)pyrimidin-4-yl)amino)-3-ethylpiperidin-1-yl)pyridazine-3-carbonitrile], in data set [1], the half-life stood at 62.6 min and the CLint scaled is 27.8 mL/min/kg. In data set [2], the half-life came out at 45.5 min and the intrinsic metabolic clearance (CLint scaled) was 54.6 mL/min/kg. In addition, in data set [3], the “clearance (CL)” value worked out at 33.2 mL/min/kg, the F was 62.7%, the AUC(0-t) is 512 ng·h/mL and the half-life was 39.6 min. In addition, the Vd in data set [3] stood at 1.66 L/kg.
Take `CCC1CN(c2ccc(C#N)cn2)CCC1N(C)c1nc(Nc2ccc3c(C)n(C)nc3c2)ncc1Cl` (stereo not shown) [Ex. 20, 6-(4-((5-chloro-2-((2,3-dimethyl-2H-indazol-6-yl)amino)pyrimidin-4-yl)(methyl)amino)-3-ethylpiperidin-1-yl)nicotinonitrile]: in data set [1], the half-life was found to be 26 min and the CLint scaled is 66.9 mL/min/kg. In data set [2], the half-life was 15 min and the CLint scaled is 166 mL/min/kg. Further, in data set [3], the “clearance (CL)” value is 18.3 mL/min/kg, the F is on record as 30.4%, the AUC(0-t) stood at 881 ng·h/mL and the half-life is 90 min. Further, the Vd in data set [3] came to 1.9 L/kg.
With `CCC1CN(c2ccc(C#N)cn2)CCC1N(C)c1nc(Nc2cc(C)n(C)n2)ncc1Cl` (stereo not shown) [Ex. 18, 6-(4-((5-chloro-2-((1,5-dimethyl-1H-pyrazol-3-yl)amino)pyrimidin-4-yl) (methyl)amino)-3-ethylpiperidin-1-yl)nicotinonitrile], in data set [1], the half-life came to 22.9 min and the CLint scaled is 75.9 mL/min/kg. Moreover, in data set [2], the half-life came to 37.6 min and the CLint scaled is 66.1 mL/min/kg. Also, in data set [3], the “clearance (CL)” value worked out at 23.7 mL/min/kg, the F is reported as 66.8%, the exposure AUC(0-t) was 663 ng·h/mL and the half-life is 109 min. Besides, the Vd in data set [3] came out at 2.88 L/kg.
As to `CCC1CN(c2ccc(C#N)nn2)CCC1N(C)c1nc(Nc2ccc3c(C)n(C)nc3c2)ncc1Cl` (stereo not shown) [Ex. 19, 6-(4-((5-chloro-2-((2,3-dimethyl-2H-indazol-6-yl)amino)pyrimidin-4-yl)(methyl)amino)-3-ethylpiperidin-1-yl)pyridazine-3-carbonitrile], in data set [1], the half-life was 10.5 min and the intrinsic clearance (CLint scaled) is 165 mL/min/kg. Further, in data set [2], the half-life came out at 6.55 min and the CLint scaled was 379 mL/min/kg. Also, in data set [3], the “clearance (CL)” value amounted to 43.8 mL/min/kg, the F is given as 23.4%, the AUC(0-t) amounted to 381 ng·h/mL and the half-life was 27 min. Also, the Vd in data set [3] amounted to 1.4 L/kg.
On to `CCC1CN(c2ccc(C#N)cn2)CCC1Nc1nc(Nc2cc(C)n(C)n2)ncc1Cl` (stereo not shown) [Ex. 21, 6-(4-((5-chloro-2-((1,5-dimethyl-1H-pyrazol-3-yl)amino)pyrimidin-4-yl)amino)-3-ethylpiperidin-1-yl)nicotinonitrile], for which, in data set [1], the half-life turned out to be 17.9 min and the CLint scaled was 97.3 mL/min/kg. Moreover, in data set [2], the half-life came to 38.8 min and the CLint scaled was 64 mL/min/kg. In data set [3], the “clearance (CL)” value was 6.83 mL/min/kg, the F is listed as 106.1%, the AUC(0-t) is 2320 ng·h/mL and the half-life is 93.6 min. Also, in data set [3], the Vd is 0.81 L/kg.
`Cc1c2ccc(Nc3ncc(Cl)c(N(C)C4CCN(c5ccc(C#N)nn5)CC4)n3)cc2nn1C` [Ex. 24]: in data set [1], the half-life came to 6.4 min and the CLint scaled is 272 mL/min/kg. Further, in data set [2], the half-life was found to be 7.12 min and the CLint scaled is 349 mL/min/kg.
In the case of `CCC1CN(c2ccc(C#N)cn2)CCC1Nc1nc(Nc2cn(C)nc2C)ncc1Cl` (stereo not shown) [Ex. 16, 6-(4-((5-chloro-2-((1,3-dimethyl-1H-pyrazol-4-yl)amino)pyrimidin-4-yl)amino)-3-ethylpiperidin-1-yl)nicotinonitrile], in data set [1], the half-life is 3.94 min and the intrinsic clearance (CLint scaled) is 442 mL/min/kg. Besides, in data set [2], the half-life is 6.85 min and the CLint scaled is 363 mL/min/kg. Also, in data set [3], the “clearance (CL)” value worked out at 23.3 mL/min/kg, the F amounted to 60.9%, the AUC(0-t) came to 722 ng·h/mL and the half-life was 39.6 min. Also, the Vd in data set [3] was found to be 0.96 L/kg.
